# Biological target: T1, human PAH with the R408W mutation (Homo sapiens, UniProt P00439, R408W)
# T1 construct: expressed in transfected cells
# T1 sequence (P00439 1-452 R408W): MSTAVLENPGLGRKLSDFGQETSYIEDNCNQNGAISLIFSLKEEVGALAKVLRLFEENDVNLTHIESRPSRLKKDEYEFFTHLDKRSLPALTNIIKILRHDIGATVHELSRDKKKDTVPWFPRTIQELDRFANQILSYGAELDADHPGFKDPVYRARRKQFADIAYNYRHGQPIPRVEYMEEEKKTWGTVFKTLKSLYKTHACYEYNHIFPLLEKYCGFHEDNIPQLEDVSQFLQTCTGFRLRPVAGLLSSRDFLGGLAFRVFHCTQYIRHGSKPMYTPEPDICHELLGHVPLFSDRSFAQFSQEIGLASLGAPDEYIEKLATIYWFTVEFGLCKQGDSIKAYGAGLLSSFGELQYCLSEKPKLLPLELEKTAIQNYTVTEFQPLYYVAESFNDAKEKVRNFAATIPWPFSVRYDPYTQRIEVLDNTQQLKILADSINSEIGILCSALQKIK
# Test: Cell Based Phenylalanine Flux Assay;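 note: after compound treatment, cells received sepiapterin plus isotope-labelled Phenylalanine for 4 hours, then labelled Tyrosine in the medium was quantified, 10-point 2-fold dilution series run in duplicate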
# Conditions: A375 cells expressing R408W PAH; 24 hrs with compound, then 20 µM sepiapterin and 800 µM 13C9,15N-Phenylalanine for 4 hours; 13C-Tyrosine by LC-MS; average where tested multiple times; read-out: AC50
row,SMILES,AC50 [µM]
1,Cc1cccc2cc(C3c4nc[nH]c4CCN3C(=O)c3nc(C(F)(F)F)nn3C)nn12 (stereo not shown) [listing 1 of 2 here],> 5
2,Cn1cc(-c2nnc(C(=O)N3CCc4[nH]cnc4C3c3cc4cc(C(F)(F)F)ccn4n3)o2)cn1 (stereo not shown) [listing 1 of 2 here],> 5
3,CC(C)(F)c1nnc(C(=O)N2CCc3[nH]cnc3C2c2cc3cc(F)ccn3n2)o1 (stereo not shown),1 to 5
4,O=C(c1ccn(-c2ccccn2)n1)N1CCc2[nH]cnc2C1c1cc2c(F)cccn2n1 (stereo not shown) [listing 1 of 2 here],1 to 5
5,Cn1ccc(-c2nnc(C(=O)N3CCc4[nH]cnc4C3c3cc4cc(F)ccn4n3)o2)n1 (stereo not shown) [listing 1 of 2 here],> 5
6,O=C(c1nnc(-c2ccccn2)o1)N1CCc2[nH]cnc2C1c1cc2cc(C(F)(F)F)ccn2n1 (stereo not shown) [listing 1 of 2 here],1 to 5
7,O=C(c1nnc(-c2ccccn2)o1)N1CCc2[nH]cnc2C1c1cc2cc(F)ccn2n1 (stereo not shown) [listing 1 of 2 here],> 5
8,Cc1ccn2nc(C3c4nc[nH]c4CCN3C(=O)c3nnc(C(C)(C)O)o3)cc2c1 (stereo not shown) [listing 1 of 2 here],> 5
9,Cn1nc(C(C)(C)C)cc1C(=O)N1CCc2[nH]cnc2C1c1cc2ccccn2n1 (stereo not shown) [listing 1 of 2 here],1 to 5
10,Cn1ncnc1C(=O)N1CCc2[nH]cnc2C1c1cc2cccc(Cl)n2n1 (stereo not shown) [listing 1 of 2 here],1 to 5
11,O=C(Cc1nncs1)N1CCc2nc[nH]c2C1c1cc2ccccn2n1 (stereo not shown),1 to 5
12,CN1CCN(c2nnc(C(=O)N3CCc4[nH]cnc4C3c3cc4c(F)cccn4n3)o2)CC1 (stereo not shown),1 to 5
13,Cc1cccc2cc(C3c4nc[nH]c4CCN3C(=O)c3ncnn3C)nn12 (stereo not shown),1 to 5
14,Cc1nc(C(=O)N2CCc3[nH]cnc3C2c2cc3cccc(C)n3n2)n(C)n1 (stereo not shown),1 to 5
15,O=C(c1ccn(-c2ccccn2)n1)N1CCc2[nH]cnc2C1c1cc2c(F)cccn2n1 (stereo not shown) [listing 2 of 2 here],1 to 5
16,Cc1cccn2nc(C3c4nc[nH]c4CCN3C(=O)c3ccn(-c4ccccn4)n3)cc12 (stereo not shown) [listing 2 of 2 here],1 to 5
17,Cc1nnc(C(=O)N2CCc3[nH]cnc3C2c2cc3c(F)cccn3n2)o1 (stereo not shown) [listing 2 of 2 here],1 to 5

row,SMILES,AC50 [µM]
1,Cn1ccc(-c2nnc(C(=O)N3CCc4[nH]cnc4C3c3cc4cc(F)ccn4n3)o2)n1 (stereo not shown) [listing 2 of 2 here],1 to 5
2,Cn1cc(-c2nnc(C(=O)N3CCc4[nH]cnc4C3c3cc4cc(F)ccn4n3)o2)cn1 (stereo not shown),1 to 5
3,Cn1cncc1-c1nnc(C(=O)N2CCc3[nH]cnc3C2c2cc3cccc(Cl)n3n2)o1 (stereo not shown),1 to 5
4,Cc1nnc(C(=O)N2CCc3[nH]cnc3C2c2cc3cccc(Cl)n3n2)o1 (stereo not shown) [listing 2 of 2 here],1 to 5
5,CC(C)(O)c1nnc(C(=O)N2CCc3[nH]cnc3C2c2cc3c(C(F)(F)F)cccn3n2)o1 (stereo not shown),1 to 5
6,O=C(c1nnc(-c2ccccn2)o1)N1CCc2[nH]cnc2C1c1cc2cc(C(F)(F)F)ccn2n1 (stereo not shown) [listing 2 of 2 here],1 to 5
7,Cc1ccn2nc(C3c4nc[nH]c4CCN3C(=O)c3nnc(C(C)(C)O)o3)cc2c1 (stereo not shown) [listing 2 of 2 here],1 to 5
8,CC(C)(O)c1nnc(C(=O)N2CCc3[nH]cnc3C2c2cc3cccc(C(F)(F)F)n3n2)o1 (stereo not shown) [listing 2 of 2 here],1 to 5
9,O=C(c1nnc(C2CC2)o1)N1CCc2[nH]cnc2C1c1cc2cc(C(F)(F)F)ccn2n1 (stereo not shown),1 to 5
10,Cc1ccn2nc(C3c4nc[nH]c4CCN3C(=O)c3nnc(C)o3)cc2c1 (stereo not shown),> 5
11,Cc1nnc(C(=O)N2CCc3[nH]cnc3C2c2cc3ccc(C(F)(F)F)cn3n2)o1 (stereo not shown),1 to 5
12,CC(C)(C)c1nnc(C(=O)N2CCc3[nH]cnc3C2c2cc3ccc(C(F)(F)F)cn3n2)o1 (stereo not shown),1 to 5
13,Cc1cccc2cc(C3c4nc[nH]c4CCN3C(=O)c3nc(C(F)F)nn3C)nn12 (stereo not shown),1 to 5
14,Cn1nc(C(C)(C)C)cc1C(=O)N1CCc2[nH]cnc2C1c1cc2c(F)cccn2n1 (stereo not shown),1 to 5
15,O=C(c1ocnc1CC(F)F)N1CCc2[nH]cnc2C1c1cc2ccccn2n1 (stereo not shown),1 to 5
16,O=C(C1CC1)N1CCc2[nH]cnc2C1c1cc2ccccn2n1 (stereo not shown),1 to 5

# Next, values leading:
row,AC50 [µM],SMILES
1,> 5,O=C(Cc1cnn2ccccc12)N1CCc2[nH]cnc2C1c1cc2ccccn2n1 (stereo not shown)
2,> 5,Cc1ccn2nc(C3c4nc[nH]c4CCN3C(=O)c3nnc(C(C)(C)F)o3)cc2c1 (stereo not shown) [listing 1 of 2 here]
3,> 5,Cc1cccn2nc(C3c4nc[nH]c4CCN3C(=O)c3ccn(-c4ccccn4)n3)cc12 (stereo not shown) [listing 1 of 2 here]
4,> 5,Cc1nnc(C(=O)N2CCc3[nH]cnc3C2c2cc3c(F)cccn3n2)o1 (stereo not shown) [listing 1 of 2 here]
5,1 to 5,Cc1nnc(C(=O)N2CCc3[nH]cnc3C2c2cc3cc(F)ccn3n2)o1 (stereo not shown) [listing 1 of 2 here]
6,1 to 5,Cc1nnc(C(=O)N2CCc3[nH]cnc3C2c2cc3cccc(Cl)n3n2)o1 (stereo not shown) [listing 1 of 2 here]
7,1 to 5,CC(C)(O)c1nnc(C(=O)N2CCc3[nH]cnc3C2c2cc3cccc(C(F)(F)F)n3n2)o1 (stereo not shown) [listing 1 of 2 here]
8,1 to 5,Cc1ccn2nc(C3c4nc[nH]c4CCN3C(=O)c3nnc(C4CC4)o3)cc2c1 (stereo not shown) [listing 1 of 2 here]
9,> 5,CC(C)(C)c1nnc(C(=O)N2CCc3[nH]cnc3C2c2cc3cc(F)ccn3n2)o1 (stereo not shown) [listing 1 of 2 here]
10,1 to 5,Cc1ccn2nc(C3c4nc[nH]c4CCN3C(=O)c3nnc(C(C)(C)C)o3)cc2c1 (stereo not shown) [listing 1 of 2 here]
11,> 5,Cc1cccn2nc(C3c4nc[nH]c4CCN3C(=O)c3cc(C(C)(C)C)nn3C)cc12 (stereo not shown) [listing 1 of 2 here]
12,1 to 5,Cc1cccn2nc(C3c4nc[nH]c4CCN3C(=O)c3nnc(N4CCN(C)CC4)o3)cc12 (stereo not shown)
13,1 to 5,Cc1cccc2cc(C3c4nc[nH]c4CCN3C(=O)c3nc(C(F)(F)F)nn3C)nn12 (stereo not shown) [listing 2 of 2 here]
14,1 to 5,Cc1nc(C(=O)N2CCc3[nH]cnc3C2c2cc3ccccn3n2)n(C)n1 (stereo not shown)
15,1 to 5,Cc1cccc2cc(C3c4nc[nH]c4CCN3C(=O)c3nnc(-c4cncn4C)o3)nn12 (stereo not shown)
16,1 to 5,Cn1cc(-c2nnc(C(=O)N3CCc4[nH]cnc4C3c3cc4cc(C(F)(F)F)ccn4n3)o2)cn1 (stereo not shown) [listing 2 of 2 here]
17,1 to 5,Cc1ccn2nc(C3c4nc[nH]c4CCN3C(=O)c3nnc(C(C)(C)F)o3)cc2c1 (stereo not shown) [listing 2 of 2 here]
18,1 to 5,Cc1nnc(C(=O)N2CCc3[nH]cnc3C2c2cc3cc(F)ccn3n2)o1 (stereo not shown) [listing 2 of 2 here]
19,1 to 5,O=C(c1nnc(-c2ccccn2)o1)N1CCc2[nH]cnc2C1c1cc2cc(F)ccn2n1 (stereo not shown) [listing 2 of 2 here]

row,AC50 [µM],SMILES
1,> 5,CC(C)(O)c1nnc(C(=O)N2CCc3[nH]cnc3C2c2cc3cc(F)ccn3n2)o1 (stereo not shown)
2,1 to 5,CC(C)(O)c1nnc(C(=O)N2CCc3[nH]cnc3C2c2cc3ccc(C(F)(F)F)cn3n2)o1 (stereo not shown)
3,1 to 5,CC(C)(O)c1nnc(C(=O)N2CCc3[nH]cnc3C2c2cc3ccc(F)cn3n2)o1 (stereo not shown)
4,1 to 5,CC(C)(O)c1nnc(C(=O)N2CCc3[nH]cnc3C2c2cc3cccc(Cl)n3n2)o1 (stereo not shown)
5,1 to 5,CC(C)(O)c1nnc(C(=O)N2CCc3[nH]cnc3C2c2cc3ccccn3n2)o1 (stereo not shown)
6,1 to 5,Cc1ccn2nc(C3c4nc[nH]c4CCN3C(=O)c3nnc(C4CC4)o3)cc2c1 (stereo not shown) [listing 2 of 2 here]
7,1 to 5,O=C(c1nnc(C2CC2)o1)N1CCc2[nH]cnc2C1c1cc2ccc(C(F)(F)F)cn2n1 (stereo not shown)
8,1 to 5,Cc1nnc(C(=O)N2CCc3[nH]cnc3C2c2cc3cccc(C(F)(F)F)n3n2)o1 (stereo not shown)
9,1 to 5,Cc1nnc(C(=O)N2CCc3[nH]cnc3C2c2cc3cccc(C)n3n2)o1 (stereo not shown)
10,1 to 5,CC(C)(C)c1nnc(C(=O)N2CCc3[nH]cnc3C2c2cc3cc(F)ccn3n2)o1 (stereo not shown) [listing 2 of 2 here]
11,1 to 5,Cc1ccn2nc(C3c4nc[nH]c4CCN3C(=O)c3nnc(C(C)(C)C)o3)cc2c1 (stereo not shown) [listing 2 of 2 here]
12,1 to 5,Cn1nc(C(F)F)nc1C(=O)N1CCc2[nH]cnc2C1c1cc2cc(F)ccn2n1 (stereo not shown)
13,1 to 5,Cc1cccc2cc(C3c4nc[nH]c4CCN3C(=O)c3nc(C4CC4)nn3C)nn12 (stereo not shown)
14,1 to 5,Cc1cccn2nc(C3c4nc[nH]c4CCN3C(=O)c3cc(C(C)(C)C)nn3C)cc12 (stereo not shown) [listing 2 of 2 here]
15,1 to 5,Cn1nc(C(C)(C)C)cc1C(=O)N1CCc2[nH]cnc2C1c1cc2ccccn2n1 (stereo not shown) [listing 2 of 2 here]
16,1 to 5,COc1cccn2nc(C3c4nc[nH]c4CCN3C(=O)c3cc(C(C)(C)C)nn3C)cc12 (stereo not shown)
17,1 to 5,O=C(c1ocnc1C(F)F)N1CCc2[nH]cnc2C1c1cc2cc(C(F)(F)F)ccn2n1 (stereo not shown)
18,1 to 5,Cn1ncnc1C(=O)N1CCc2[nH]cnc2C1c1cc2cccc(Cl)n2n1 (stereo not shown) [listing 2 of 2 here]

# — patent US20230365592A1 (Agios Pharmaceuticals, Inc., priority 2022, published 2023)
